Measurements: patent US8022225B2, “Triazole derivative” (Taisho Pharmaceutical Co., Ltd, priority 2004, dated 2011)

Experiments:
[1] = target: T1, human Edg-1(S1P1) (Homo sapiens, UniProt P21453); test: Cell system binding test: inhibition of [3H]-S1P binding to Edg-1(S1P1) gene transferred HEK-293 cells; conditions: [3H]-S1P 10 nM
T1 construct: expressed in transfected cells; host or cells: HEK-293

[2] = target: T1, human Edg-1(S1P1); test: Membrane system binding test: inhibition of [33P]-S1P binding to the membrane fraction of Edg-1(S1P1) gene transferred HEK-293 cells; conditions: [33P]-S1P 0.1 nM
Method in brief: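 Membranes from HEK-293 cells transfected with Edg-1(S1P1) incubated 1 h at 30 °C with 0.1 nM [^33P]-S1P and compound at 10^−5 M (0.1% DMSO), pH 7.4 buffer with fatty acid-free BSA. Filter-bound radioactivity counted; inhibition rate calculated against no-compound binding, with untransfected-cell background subtracted.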

[3] = 10 μM compound, read-out: Cell system binding test % inhibition (10 μM)
[4] = 10 μM compound, membrane fraction of Edg-1(S1P1) gene transferred HEK-293 cells, read-out: Membrane system binding test % inhibition (10 μM)
[5] = test compound 10^-5 M, 1 hour, read-out: Edg-1(S1P1) binding inhibition rate (cell system binding test)
[6] = test compound 10^-5 M, 1 hour at 30° C., HEK-293 membrane fraction, read-out: Edg-1(S1P1) binding inhibition rate (membrane system binding test)

T1 sequence (P21453 whole entry): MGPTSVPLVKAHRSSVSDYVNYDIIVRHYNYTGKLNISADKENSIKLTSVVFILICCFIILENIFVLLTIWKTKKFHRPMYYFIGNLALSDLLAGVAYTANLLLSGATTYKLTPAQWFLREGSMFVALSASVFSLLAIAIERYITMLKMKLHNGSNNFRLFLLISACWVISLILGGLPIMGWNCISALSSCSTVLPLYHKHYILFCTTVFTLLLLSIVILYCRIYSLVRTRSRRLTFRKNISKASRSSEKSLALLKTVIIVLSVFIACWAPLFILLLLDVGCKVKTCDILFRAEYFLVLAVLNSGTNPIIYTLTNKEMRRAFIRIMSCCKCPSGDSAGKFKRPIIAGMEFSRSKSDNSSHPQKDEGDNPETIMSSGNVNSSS

SMILES | inhibition at 10 µM [1, 3] | inhibition at 10 µM [2, 4] | further results
CCCCCCCCSc1nnc([C@@H](C)NS(=O)(=O)c2ccc(Cl)cc2)n1CC [Compound 30] | 91.9% | 100% | –
CCn1c(OCC2CCC2)nnc1[C@@H](C)NS(=O)(=O)c1ccc(Cl)cc1 [Compound 385] | 99.9% | 90.1% | –
CCn1c(OC(C)C)nnc1[C@@H](C)NS(=O)(=O)c1ccc(Br)cc1 [Compound 461] | – | – | inhibition at 10 µM [1, 5]: 87.9%; inhibition at 10 µM [2, 6]: 89.5%
CCn1c(SCCN2CCNC2=O)nnc1[C@@H](C)NS(=O)(=O)c1ccc(Cl)cc1 [Compound 73] | 93.9% | 98.4% | –
CCn1c(SC2CCc3ccccc3C2)nnc1[C@@H](C)NS(=O)(=O)c1ccc(Cl)cc1 (stereo partly shown) [Compound 36] | 89.5% | 104% | –
CCn1c(OCC(F)(F)F)nnc1[C@@H](C)NS(=O)(=O)c1ccc2ccccc2c1 [Compound 495] | – | – | inhibition at 10 µM [1, 5]: 104%; inhibition at 10 µM [2, 6]: 89.9%
CCc1ccc(S(=O)(=O)N[C@H](C)c2nnc(OCC(F)(F)F)n2CC)cc1 [Compound 515] | – | – | inhibition at 10 µM [1, 5]: 103%; inhibition at 10 µM [2, 6]: 62.4%
CCn1c(SCc2ccc(C(=O)OC)cc2)nnc1[C@@H](C)NS(=O)(=O)c1ccc(Cl)cc1 [Compound 58] | 91.9% | 98.1% | –
C=CCSc1nnc([C@@H](Cc2ccccc2)NS(=O)(=O)c2ccc(Cl)cc2)n1CC [Compound 138] | 94.7% | 102% | –
C=CCSc1nnc([C@@H](C)NS(=O)(=O)c2ccc(Cl)cc2)n1CCC [Compound 95] | 94% | 60.2% | –
CCn1c(SCCc2ccc(Cl)cc2)nnc1[C@@H](C)NS(=O)(=O)c1ccc(Cl)cc1 [Compound 19] | 82.5% | 100% | –
CCn1c(OC(C)C)nnc1[C@@H](C)NS(=O)(=O)c1cc(F)c(Br)cc1F [Compound 482] | – | – | inhibition at 10 µM [1, 5]: 90.7%; inhibition at 10 µM [2, 6]: 72.3%
CCn1c(OCC(F)(F)F)nnc1[C@@H](C)NS(=O)(=O)c1cccc(Br)c1 [Compound 491] | – | – | inhibition at 10 µM [1, 5]: 88.9%; inhibition at 10 µM [2, 6]: 75.7%
CCn1c(OC(C)C)nnc1[C@@H](C)NS(=O)(=O)c1ccc(Br)c(F)c1 [Compound 455] | – | – | inhibition at 10 µM [1, 5]: 93.2%; inhibition at 10 µM [2, 6]: 91.7%
CCOc1nnc([C@@H](C)NS(=O)(=O)c2cccc(OC)c2)n1CC [Compound 447] | – | – | Cell system binding test % inhibition (10 μM) ([1]; 10 μM compound): 89.2%; Membrane system binding test % inhibition (10 μM) ([2]; 10 μM compound, membrane fraction of Edg-1(S1P1) gene transferred HEK-293 cells): 72.2%
CCn1c(SCCOCc2ccccc2)nnc1[C@@H](C)NS(=O)(=O)c1ccc(Cl)cc1 [Compound 37] | 92.7% | 92.8% | –

SMILES | inhibition at 10 µM [1, 3] | inhibition at 10 µM [2, 4] | further results
CCn1c(SC2CCCCC2)nnc1[C@@H](C)NS(=O)(=O)c1ccc(Cl)cc1 [Compound 8] | 83.9% | 85.6% | –
CCn1c(SCC2(c3ccc(Cl)cc3)CC2)nnc1[C@@H](C)NS(=O)(=O)c1ccc(Cl)cc1 [Compound 12] | 87.8% | 85.9% | –
CCn1c(OC(C)C)nnc1[C@@H](C)NS(=O)(=O)c1cc(Cl)c(Cl)s1 [Compound 475] | – | – | inhibition at 10 µM [1, 5]: 97.9%; inhibition at 10 µM [2, 6]: 86.4%
CCn1c(OC(C)C)nnc1[C@@H](C)NS(=O)(=O)c1cccc(OC(F)F)c1 [Compound 466] | – | – | inhibition at 10 µM [1, 5]: 99.3%; inhibition at 10 µM [2, 6]: 88.8%
CCn1c(SCC(C)C)nnc1[C@@H](C)NS(=O)(=O)c1ccc(Cl)cc1 [Compound 33] | 91.7% | 90% | –
CCn1c(SCC2CCO2)nnc1[C@@H](C)NS(=O)(=O)c1ccc(Cl)cc1 (stereo partly shown) [Compound 31] | 90.2% | 90% | –
CCn1c(OC)nnc1[C@@H](Cc1ccccc1Cl)NS(=O)(=O)c1ccc(Cl)cc1 [Compound 439] | 95% | 100% | –
CCn1c(OC(C)C)nnc1[C@@H](C)NS(=O)(=O)c1ccc(C)c(C)c1 [Compound 462] | – | – | inhibition at 10 µM [1, 5]: 83.5%; inhibition at 10 µM [2, 6]: 92.1%
CCn1c(SCCN2CCCC2=O)nnc1[C@@H](C)NS(=O)(=O)c1ccc(Cl)cc1 [Compound 78] | 83% | 96.5% | –
CCn1c(OC(C)C)nnc1[C@@H](C)NS(=O)(=O)c1cccc(C(F)(F)F)c1 [Compound 468] | – | – | inhibition at 10 µM [1, 5]: 96.9%; inhibition at 10 µM [2, 6]: 75.8%
CCN(CC)C(=O)COc1nnc([C@@H](C)NS(=O)(=O)c2ccc(Cl)cc2)n1CC [Compound 383] | 82.2% | 66% | –
CCn1c(OCC(F)(F)F)nnc1[C@@H](C)NS(=O)(=O)c1cccc(OC(F)(F)F)c1 [Compound 504] | – | – | inhibition at 10 µM [1, 5]: 96.6%; inhibition at 10 µM [2, 6]: 54%
CCn1c(SCC(=O)c2ccccc2)nnc1[C@@H](C)NS(=O)(=O)c1ccc(Cl)cc1 [Compound 47] | 92.5% | 99.2% | –
C=CCCSc1nnc([C@@H](C)NS(=O)(=O)c2ccc(Cl)cc2)n1CC [Compound 14] | 87% | 69.6% | –
CCn1c(SCCC2CCN(C)CC2)nnc1[C@@H](C)NS(=O)(=O)c1ccc(Cl)cc1 [Compound 76] | 97.3% | 101% | –
CCn1c(SCc2cccc(C#N)c2)nnc1[C@@H](C)NS(=O)(=O)c1ccc(Cl)cc1 [Compound 7] | 88.5% | 74.6% | –

The next lines start with results.

inhibition at 10 µM [1, 3] | inhibition at 10 µM [2, 4] | SMILES | further results
105% | 102% | CCn1c(OC)nnc1[C@@H](C)NS(=O)(=O)c1cc2ccccc2s1 [Compound 369] | –
97.9% | 64.8% | CCOc1nnc([C@@H](C)NS(=O)(=O)c2cccc(OC)c2)n1CC [Compound 417] | –
102% | 99.3% | CCn1c(OC2CCC2)nnc1[C@@H](C)NS(=O)(=O)c1ccc(Cl)cc1 [Compound 387] | –
97.2% | 98% | CCn1c(OC)nnc1[C@@H](C)NS(=O)(=O)c1cc(Cl)c(Cl)s1 [Compound 220] | –
100% | 80.1% | CCn1c(OC)nnc1[C@@H](C)NS(=O)(=O)c1ccc(F)c(F)c1 [Compound 287] | –
87.4% | 86.6% | CCn1c(OC)nnc1[C@@H](C)NS(=O)(=O)c1ccc(Cl)cc1 [Compound 185] | –
97.6% | 52.4% | CCn1c(OC)nnc1[C@@H](C)NS(=O)(=O)c1cc(F)cc(F)c1 [Compound 311] | –
101% | 62.8% | CCn1c(OC)nnc1[C@@H](C)NS(=O)(=O)c1cccc(C(C)=O)c1 [Compound 355] | –
93.9% | 46.9% | CCn1c(OC)nnc1[C@@H](C)NS(=O)(=O)c1ccc(NC(C)=O)c(Cl)c1 [Compound 211] | –
97.1% | 63.9% | CCn1c(OC)nnc1[C@@H](C)NS(=O)(=O)c1ccc(F)c(F)c1F [Compound 285] | –
99.8% | 93.2% | CCn1c(OC)nnc1[C@@H](C)NS(=O)(=O)c1ccc([N+](=O)[O-])cc1 [Compound 233] | –
98.1% | 61.8% | CCn1c(OC)nnc1[C@@H](C)NS(=O)(=O)c1ccccc1C [Compound 246] | –
95.3% | 52% | CCn1c(OC)nnc1[C@@H](C)NS(=O)(=O)c1ccc(OC(F)(F)F)cc1 [Compound 247] | –
101% | 86.3% | CCn1c(OC)nnc1[C@@H](C)NS(=O)(=O)c1ccc(C(F)(F)F)cc1 [Compound 249] | –
103% | 86.2% | CCn1c(OC)nnc1[C@@H](C)NS(=O)(=O)c1cccc(Br)c1 [Compound 206] | –
91.4% | 72.5% | CCOc1nnc([C@@H](C)NS(=O)(=O)c2ccc(CC)cc2)n1CC [Compound 446] | –
92.2% | 54.5% | CCn1c(OC)nnc1[C@@H](C)NS(=O)(=O)C(C)C [Compound 224] | –
99.6% | 75.1% | CCOc1nnc([C@@H](C)NS(=O)(=O)c2cccc(OC(F)(F)F)c2)n1CC [Compound 415] | –
